From ChEMBL document CHEMBL1154520, “Synthesis and antitumor activity of novel 20s-camptothecin analogues” (Bioorg Med Chem Lett, 2009)

What was measured:
MCF7 = assay: Cytotoxicity against human MCF7 cells by MTT assay; format: functional, cell-based
Mus musculus [1] = assay: Toxicity to BALB/c nu/nu mouse assessed as mortality at 10 mg/kg, ip q3d for 3 days; format: organism-based; parameters: dose 10 mg/kg, route intraperitoneal; conditions: in vivo, 72 h
HCT-8 [2] = assay: Antitumor activity against human HCT8 xenografted in BALB/c nu/nu mouse assessed as tumor inhibition rate at 20 mg/kg, ip q3d for 3 days; format: functional; conditions: HCT-8, ip, 72 h, route intraperitoneal
HCT-8 [3] = assay: Cytotoxicity against human HCT8 cells by MTT assay; format: functional, cell-based
PC-3 = assay: Cytotoxicity against human PC3 cells by MTT assay; format: functional, cell-based
HCT-8 [4] = assay: Antitumor activity against human HCT8 xenografted in BALB/c nu/nu mouse assessed as tumor inhibition rate at 10 mg/kg, ip q3d for 3 days; format: functional; conditions: HCT-8, ip, 72 h, route intraperitoneal
[5] = Chemical stability assessed as half life in PBS at pH 7.4 by HPLC; format: physicochemical
HCT-8 [6] = assay: Antitumor activity against human HCT8 xenografted in BALB/c nu/nu mouse assessed as change in body weight at 10 mg/kg, ip q3d for 3 days; format: functional; conditions: route intraperitoneal
HCT-8 [7] = assay: Antitumor activity against human HCT8 xenografted in BALB/c nu/nu mouse assessed as change in body weight at 20 mg/kg, ip q3d for 3 days; format: functional; conditions: route intraperitoneal
Mus musculus [8] = assay: Toxicity to BALB/c nu/nu mouse assessed as mortality at 20 mg/kg, ip q3d for 3 days; format: organism-based; parameters: dose 20 mg/kg, route intraperitoneal; conditions: in vivo, 72 h
HCT-8 [9] = assay: Antitumor activity against human HCT8 xenografted in BALB/c nu/nu mouse assessed as change in body weight at 5 mg/kg, ip q3d for 3 days; format: functional; conditions: route intraperitoneal
Mus musculus [10] = assay: Toxicity to BALB/c nu/nu mouse assessed as mortality at 5 mg/kg, ip q3d for 3 days; format: organism-based; parameters: dose 5 mg/kg, route intraperitoneal; conditions: in vivo, 72 h
HCT-8 [11] = assay: Antitumor activity against human HCT8 xenografted in BALB/c nu/nu mouse assessed as tumor inhibition rate at 5 mg/kg, ip q3d for 3 days; format: functional; conditions: HCT-8, ip, 72 h, route intraperitoneal

With `CC[C@@]1(OC(=O)C(C)n2cccn2)C(=O)OCc2c1cc1n(c2=O)Cc2cc3ccccc3nc2-1` (stereo partly drawn) the IC50 (MCF7) was 810 nM, the Activity (Mus musculus [1]) was “Non-toxic” and the inhibition in vivo at 20 mg/kg (HCT-8 [2]) was 92.9%. It also gave an IC50 (HCT-8 [3]) of 230 nM, an IC50 (PC-3) of 130 nM and an inhibition in vivo at 10 mg/kg (HCT-8 [4]) of 77.1%. The half-life [5] was > 48 h, the Activity (HCT-8 [6]) was -2% and the Activity (HCT-8 [7]) was -5%.
For `CC[C@@]1(OC(=O)Cn2cccn2)C(=O)OCc2c1cc1n(c2=O)Cc2cc3ccccc3nc2-1`, the IC50 (MCF7) was 120 nM, the Activity (Mus musculus [1]) was “Non-toxic” and the inhibition in vivo at 20 mg/kg (HCT-8 [2]) was 75.6%. For the same compound, the Activity (Mus musculus [8]) was “Non-toxic”, the IC50 (HCT-8 [3]) was 610 nM and the IC50 (PC-3) was 160 nM. The inhibition in vivo at 10 mg/kg (HCT-8 [4]) was 35.3%, the half-life [5] was > 48 h and the Activity (HCT-8 [6]) was 7%. The Activity (HCT-8 [7]) was 8%.
`CC[C@@]1(OC(=O)C[n+]2cccc(C(C)=O)c2)C(=O)OCc2c1cc1n(c2=O)Cc2cc3ccccc3nc2-1` gave an IC50 (MCF7) of 3450 nM, an IC50 (HCT-8 [3]) of 2580 nM and an IC50 (PC-3) of 540 nM.
`CC[C@@]1(OC(=O)C(C)n2cncn2)C(=O)OCc2c1cc1n(c2=O)Cc2cc3ccccc3nc2-1` (stereo partly drawn) gave an IC50 (MCF7) of 650 nM, an IC50 (HCT-8 [3]) of 510 nM and an IC50 (PC-3) of 440 nM. For the same compound, the half-life [5] was 14 h.
In the case of `CC[C@@]1(OC(=O)CO)C(=O)OCc2c1cc1n(c2=O)Cc2cc3ccccc3nc2-1`, the IC50 (MCF7) is reported as 10400 nM, the IC50 (HCT-8 [3]) is reported as 3000 nM and the IC50 (PC-3) is reported as 30 nM. For the same compound, the half-life [5] was > 48 h.
In the case of `CC[C@@]1(O)C(=O)OCc2c1cc1n(c2=O)Cc2cc3c(CN(C)C)c(O)ccc3nc2-1` [TOPOTECAN], the IC50 (MCF7) is reported as 5550 nM, the Activity (HCT-8 [9]) is reported as -3% and the Activity (Mus musculus [10]) is reported as “Non-toxic”. The IC50 (HCT-8 [3]) was 3660 nM, the IC50 (PC-3) was 3990 nM and the inhibition in vivo at 10 mg/kg (HCT-8 [4]) was 92.5%. The Activity (HCT-8 [6]) was -29% and the inhibition in vivo at 5 mg/kg (HCT-8 [11]) was 62%.
Compound `CC[C@@]1(OC(=O)C[n+]2cccc(C(=O)O)c2)C(=O)OCc2c1cc1n(c2=O)Cc2cc3ccccc3nc2-1` has an IC50 (MCF7) of 2120 nM, an IC50 (HCT-8 [3]) of 760 nM and an IC50 (PC-3) of 550 nM.
Work on `CC[C@@]1(OC(=O)C(C)Oc2cc(C(F)(F)F)ncn2)C(=O)OCc2c1cc1n(c2=O)Cc2cc3ccccc3nc2-1` (stereo partly drawn) yielded an IC50 (MCF7) of 270 nM, an IC50 (HCT-8 [3]) of 1110 nM and an IC50 (PC-3) of 320 nM. The half-life [5] was 9 h.
`CC[C@@]1(OC(=O)Cn2ccnn2)C(=O)OCc2c1cc1n(c2=O)Cc2cc3ccccc3nc2-1` showed an IC50 (MCF7) of 1200 nM, an IC50 (HCT-8 [3]) of 380 nM and an IC50 (PC-3) of 160 nM. For the same compound, the half-life [5] was 24 h.
For `CC[C@@]1(OC(=O)C[n+]2cccc(CO)c2)C(=O)OCc2c1cc1n(c2=O)Cc2cc3ccccc3nc2-1`, the IC50 (MCF7) was 2570 nM, the IC50 (HCT-8 [3]) was 2090 nM and the IC50 (PC-3) was 800 nM.
For `CC[C@@]1(OC(=O)C(C)n2ccnc2)C(=O)OCc2c1cc1n(c2=O)Cc2cc3ccccc3nc2-1` (stereo partly drawn), the IC50 (MCF7) was 110 nM, the IC50 (HCT-8 [3]) was 590 nM and the IC50 (PC-3) was 380 nM. The half-life [5] was 18 h.
With `CC[C@@]1(OC(=O)Cn2cncn2)C(=O)OCc2c1cc1n(c2=O)Cc2cc3ccccc3nc2-1` the IC50 (MCF7) was 690 nM, the IC50 (HCT-8 [3]) was 740 nM and the IC50 (PC-3) was 150 nM. It also gave a half-life [5] of 45 h.
`CC[C@@]1(OC(=O)C(C)n2ccnn2)C(=O)OCc2c1cc1n(c2=O)Cc2cc3ccccc3nc2-1` (stereo partly drawn) gave an IC50 (MCF7) of 160 nM, an IC50 (HCT-8 [3]) of 480 nM and an IC50 (PC-3) of 590 nM. The half-life [5] was 13 h.
In the case of `CC[C@@]1(OC(=O)Cn2ccnc2)C(=O)OCc2c1cc1n(c2=O)Cc2cc3ccccc3nc2-1`, the IC50 (MCF7) is reported as 900 nM, the Activity (Mus musculus [1]) is reported as “Non-toxic” and the inhibition in vivo at 20 mg/kg (HCT-8 [2]) is reported as 46.2%. The Activity (Mus musculus [8]) was “Non-toxic”, the IC50 (HCT-8 [3]) was 600 nM and the IC50 (PC-3) was 210 nM. For the same compound, the inhibition in vivo at 10 mg/kg (HCT-8 [4]) was 27.8%, the half-life [5] was 24 h and the Activity (HCT-8 [6]) was 6%. The Activity (HCT-8 [7]) was 1%.
`CC[C@@]1(OC(=O)C[n+]2cccc(O)c2)C(=O)OCc2c1cc1n(c2=O)Cc2cc3ccccc3nc2-1` gave an IC50 (MCF7) of 3800 nM, an IC50 (HCT-8 [3]) of 2430 nM and an IC50 (PC-3) of 110 nM.
With `CC[C@@]1(OC(=O)COc2cc(C(F)(F)F)ncn2)C(=O)OCc2c1cc1n(c2=O)Cc2cc3ccccc3nc2-1` the IC50 (MCF7) was 1790 nM, the Activity (Mus musculus [1]) was “Non-toxic” and the inhibition in vivo at 20 mg/kg (HCT-8 [2]) was 49.3%. For the same compound, the Activity (Mus musculus [8]) was “Non-toxic”, the IC50 (HCT-8 [3]) was 1510 nM and the IC50 (PC-3) was 1340 nM. For the same compound, the inhibition in vivo at 10 mg/kg (HCT-8 [4]) was 25.4%, the half-life [5] was 14 h and the Activity (HCT-8 [6]) was 36%. For the same compound, the Activity (HCT-8 [7]) was 12%.
For `CC[C@@]1(OC(=O)C[n+]2cccc(C)c2)C(=O)OCc2c1cc1n(c2=O)Cc2cc3ccccc3nc2-1`, the IC50 (MCF7) was 3760 nM, the IC50 (HCT-8 [3]) was 3780 nM and the IC50 (PC-3) was 600 nM.
With `CC[C@@]1(OC(=O)C(C)O)C(=O)OCc2c1cc1n(c2=O)Cc2cc3ccccc3nc2-1` (stereo partly drawn) the IC50 (MCF7) was 560 nM, the IC50 (HCT-8 [3]) was 820 nM and the IC50 (PC-3) was 500 nM.
